According to patent publication US5541163A, “Renin inhibiting N-(2-amino-2-oxoethyl)butanediamide derivatives” (Bio-Mega/Boehringer Ingelheim Research Inc., priority 1993, dated 1996):

Each compound was assayed against T1, human renin (Homo sapiens, UniProt P00797) (assay: Plasma renin assay (inhibition of human renin, angiotensin I by RIA)). Conditions: human plasma pool, pH 6.0, 2 h incubation at 37°.
T1 construct: A human plasma pool is used as the source of both the substrate (angiotensinogen) and the enzyme (renin); from tissue; host or cells: human plasma pool
T1 sequence (P00797 67-406): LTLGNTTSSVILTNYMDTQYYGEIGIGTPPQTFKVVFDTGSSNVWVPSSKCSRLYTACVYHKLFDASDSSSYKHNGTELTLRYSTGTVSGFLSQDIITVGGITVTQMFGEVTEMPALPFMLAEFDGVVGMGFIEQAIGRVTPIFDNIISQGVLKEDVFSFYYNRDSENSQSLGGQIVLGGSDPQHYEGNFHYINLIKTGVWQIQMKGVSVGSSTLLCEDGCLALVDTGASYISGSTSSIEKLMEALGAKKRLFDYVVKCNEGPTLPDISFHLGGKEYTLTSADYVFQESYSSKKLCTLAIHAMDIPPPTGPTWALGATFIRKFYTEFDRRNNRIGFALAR
Type: biochemical
Summary of the method: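 Pooled human plasma supplies both renin and angiotensinogen; inhibitor in MES/1% HSA buffer (1% DMSO final) incubated 2 h at 37° at pH 6.0. Angiotensin I generated quantified by radioimmunoassay, inhibition relative to no-inhibitor control, IC50 by nonlinear regression.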

Row | IC50 [nM] | Structure (SMILES)
1 | 1 | CC(C)C[C@H](O)[C@H](O)[C@H](CC1CCCCC1)NC(=O)[C@@H](CC(=O)N(CC(=O)N(C)CCc1ccccn1)[C@@H](C)C1CCCCC1)Cc1csc(N)n1 [Compound 63, N^4-[1(S)-cyclohexylethyl]-N^4 -{2-{methyl[2-(2-pyridinyl)ethyl]-amino}-2-oxoethyl}-N^1-[1(S)-(cyclohexylmethyl)-2(R),3(S)-dihydroxy-5-methylhexyl]-2(R)-[(2-amino-4-thiazolyl)methyl]butanediamide]
2 | 145 | CC(C)C[C@H](O)[C@H](O)[C@H](CC1CCCCC1)NC(=O)[C@@H](CC(=O)N(CCc1ccccn1)CC(=O)N(C)C)CC1CC1 [Compound 51, N^4-[2-(dimethylamino)-2-oxoethyl]-N^4-[2-(2-pyridinyl)ethyl]-N^1-(1(S)-(cyclohexylmethyl)-2(R),3(S)-dihydroxy-5-methylhexyl]-2(R)-(cyclopropylmethyl)butanediamide]
3 | 350 | CC(C)C[C@H](O)[C@H](O)[C@H](CC1CCCCC1)NC(=O)[C@@H](CC(=O)N(CC(=O)N(C)C)Cc1cccnc1)CC1CC1 [Compound 14, N^4-[2-(dimethylamino)-2-oxoethyl]-N^4-(3-pyridinylmethyl)-N^1-[1(S)-(cyclohexylmethyl)-2(R),3(S)-dihydroxy-5-methylhexyl]-2(R)-(cyclopropylmethyl)butanediamide]
4 | 1.6 | CC(C)C[C@H](O)[C@H](O)[C@H](CC1CCCCC1)NC(=O)[C@@H](CC(=O)N(CC(=O)N1CCOCC1)CC1CCCCC1)Cc1nccs1 [Compound 39, N^4-(cyclohexylmethyl)-N^4-(2-morpholino-2-oxoethyl)-N^1-[1(S)-(cyclohexylmethyl)-2(R),3(S)-dihydroxy-5-methylhexyl]-2(S)-(2-thiazolylmethyl)butanediamide]
5 | 32 | CC(C)C[C@H](O)[C@H](O)[C@H](CC1CCCCC1)NC(=O)[C@@H](CC(=O)N(CC(=O)N(C)C)CC1CCCC1)Cc1cccnc1 [Compound 69, N^4-(cyclopentylmethyl)-N^4-[2-(dimethylamino)-2-oxoethyl]-N^1-[1(S)-(cyclohexylmethyl)-2(R),3(S)-dihydroxy-5-methylhexyl]-2(R)-(3-pyridinylmethyl)butanediamide]
6 | 0.35 | CC(C)C[C@H](O)[C@H](O)[C@H](CC1CCCCC1)NC(=O)[C@@H](CC(=O)N(CC(=O)N(C)CCN(C)C(=O)N1CCOCC1)CC1CCCCC1)Cc1csc(N)n1 [Compound 83, N^4-(cyclohexylmethyl)-N^4 -{2-{methyl{2-[methyl(morpholinocarbonyl)-amino]ethyl}amino}-2-oxoethyl}-N^1-[1(S)-(cyclohexylmethyl)-2(R),3(S)-dihydroxy-5-methylhexyl]-2(R)-[(2-amino-4-thiazolyl)methyl]butanediamide]
7 | 1 | CC(C)C[C@H](O)[C@H](O)[C@H](CC1CCCCC1)NC(=O)[C@@H](CC(=O)N(CC(=O)N(C)CCc1ccccn1)CC1CCCCCC1)Cc1csc(N)n1 [Compound 81, N^4-(cycloheptylmethyl)-N^4 -{2-{methyl[2-(2-pyridinyl)ethyl]amino}-2-oxoethyl}-N^1-[1(S)-(cyclohexylmethyl)-2(R),3(S)-dihydroxy-5-methylhexyl]-2(R)-[(2-amino-4-thiazolyl)-methyl]butanediamide]
8 | 3 | COCOC1CCN(C(=O)CN(CC2CCCCC2)C(=O)C[C@@H](Cc2csc(N)n2)C(=O)N[C@@H](CC2CCCCC2)[C@@H](O)[C@@H](O)CC(C)C)CC1 [Compound 62, N^4 -{2-[4-(methoxymethoxy)piperidinyl]-2-oxoethyl}-N^4-(cyclohexylmethyl)-N^1-[1(S)-(cyclohexylmethyl)-2(R),3(S)-dihydroxy-5-methylhexyl]-2(R)-[(2-amino-4-thiazolyl)methyl]-butanediamide]
9 | 36 | CC(C)CC[C@H](O)[C@H](CC1CCCCC1)NC(=O)[C@@H](CC(=O)N(CC(=O)N(C)CCc1ccccn1)CC1CCCCC1)Cc1csc(N)n1 [Compound 77, N^4-(cyclohexylmethyl)-N^4 -{2-{methyl[2-(2-pyridinyl)ethyl]-amino}-2-oxoethyl}-N^1-[1(S)-(cyclohexylmethyl)-2(S)-hydroxy-5-methylhexyl]-2(R)-[(2-amino-4-thiazolyl)methyl]butanediamide]

The next lines start with the compound.

Row | Structure (SMILES) | IC50 [nM]
10 | CCC[C@H](CC(=O)N(CC(=O)N(C)C)[C@@H](C)c1ccccc1)C(=O)N[C@@H](CC1CCCCC1)[C@@H](O)[C@@H](O)CC(C)C [Compound 25, N^4-[2-(dimethylamino)-2-oxoethyl]-N^4-[1(S)-phenylethyl]-N^1-[1(S)-(cyclohexylmethyl)-2(R),3(S)-dihydroxy-5-methylhexyl]-2(R)-propylbutanediamide] | 34
11 | CC(C)C[C@H](O)[C@H](O)[C@H](CC1CCCCC1)NC(=O)[C@@H](CC(=O)N(CCCc1ccccc1)CC(=O)N(C)C)CC1CC1 [Compound 4, N^4-[2-(dimethylamino)-2-oxoethyl]-N^4-(3-phenylpropyl)-N^1-[1(S)-(cyclohexylmethyl)-2(R),3(S)-dihydroxy-5-methylhexyl]-2(R)-(cyclopropylmethyl)butanediamide] | 220
12 | CC(C)C[C@H](O)[C@H](O)[C@H](CC1CCCCC1)NC(=O)[C@@H](CC(=O)N(CC(=O)N(C)CCc1ccccn1)Cc1ccco1)Cc1csc(N)n1 [Compound 79, N^4-(2-furanylmethyl)-N^4 -{2-{methyl-[2-(2-pyridinyl)ethyl)amino}-2-oxoethyl}-N^1-[1(S)-(cyclohexylmethyl)-2(R),3(S)-dihydroxy-5-methylhexyl]-2(R)-[(2-amino-4-thiazolyl)-methyl]butanediamide] | 1
13 | CCC[C@H](CC(=O)N(CC(=O)N(C)CCc1ccccn1)Cc1ccccc1)C(=O)N[C@@H](CC1CCCCC1)[C@@H](O)[C@@H](O)CC(C)C [Compound 26, N^4-benzyl-N^4 -{2-{methyl[2-(2-pyridinyl)ethyl]amino}-2-oxoethyl}-N^1-[1(S)-(cyclohexylmethyl)-2(R),3(S)-dihydroxy-5-methylhexyl]-2(R)-propylbutanediamide] | 29
14 | CON(C)C(=O)CN(Cc1ccccc1)C(=O)C[C@@H](CC1CC1)C(=O)N[C@@H](CC1CCCCC1)[C@@H](O)[C@@H](O)CC(C)C [Compound 8, N^4-benzyl-N^4 -{2-[(methoxy)methylamino]-2-oxoethyl}-N^1-[1(S)-(cyclohexylmethyl)-2(R),3(S)-dihydroxy-5-methylhexyl]-2(R)-(cyclopropylmethyl)butanediamide] | 66
15 | C[C@@H](c1ccccc1)N(CC(=O)N(C)C)C(=O)C[C@@H](CC1CC1)C(=O)N[C@@H](CC1CCCCC1)[C@@H](O)[C@@H]1CC(C)(C)N(C)C1=O [Compound 42, N^4-[2-(dimethylamino)-2-oxoethyl]-N^4-[1(S)-phenylethyl]-N^1-[1(S)-(cyclohexylmethyl)-2(S)-hydroxy-2-(1,5,5-trimethyl-2-oxopyrrolidin-3(S)-yl)ethyl]-2(R)-(cyclopropylmethyl)butanediamide] | 55
16 | C[C@@H](c1ccccc1)N(CC(=O)N(C)C)C(=O)C[C@@H](Cc1csc(N)n1)C(=O)N[C@@H](CC1CCCCC1)[C@@H](O)[C@@H](O)C1CC1 [Compound 43, N^4-[2-(dimethylamino)-2-oxoethyl]-N^4-[1(S)-phenylethyl]-N^1-[1(S)-(cyclohexylmethyl)-2(R),3(S)-dihydroxy-(3-cyclopropylpropyl)]-2(R)-[(2-amino-4-thiazolyl)methyl]-butanediamide] | 6.8
17 | CC(C)C[C@H](O)[C@H](O)[C@H](CC1CCCCC1)NC(=O)[C@@H](CC(=O)N(CC(=O)N(C)C)C[C@@H](C)c1ccccc1)CC1CC1 [Compound 20, N^4-[2-(dimethylamino)-2-oxoethyl]-N^4-(2(S)-phenylpropyl]-N^1-(1(S)-(cyclohexylmethyl)-2(R),3(S)-dihydroxy-5-methylhexyl]-2(R)-(cyclopropylmethyl)butanediamide] | 37
18 | CCC(CC)CN(CC(=O)N(C)CCc1ccccn1)C(=O)C[C@@H](Cc1csc(N)n1)C(=O)N[C@@H](CC1CCCCC1)[C@@H](O)[C@@H](O)CC(C)C [Compound 84, N^4-(2-ethylbutyl)-N^4 -{2-{methyl[2-(2-pyridinyl)ethyl]amino}-2-oxoethyl}-N^1-[1(S)-(cyclohexylmethyl)-2(R),3(S)-dihydroxy-5-methylhexyl]-2(R)-[(2-amino-4-thiazolyl)methyl]-butanediamide] | 3
19 | CC(C)C[C@H](O)[C@H](O)[C@H](CC1CCCCC1)NC(=O)[C@@H](CC(=O)N(CC(=O)N(C)C)Cc1ccccc1)Cc1csc(N)n1 [Compound 52, N^4-benzyl-N^1-[2-(dimethylamino)-2-oxoethyl)-N^1-[1(S)-(cyclohexylmethyl)-2(R),3(S)-dihydroxy-5-methylhexyl]-2(R)-[(2-amino-4-thiazolyl)-methyl]butanediamide] | 3
